Assay [1] addresses T1, human INTS4-INTS9-INTS11 complex (human ICM) (Homo sapiens, UniProt Q5TA45+Q96HW7+Q9NV88, Q9NV88:K510E/Q9NV88:R511E).
T1 construct: three-subunit complex purified from insect cell expression
As to the kind of experiment: LC-MS/MS of co-purified ligand. The settings on record: ligand co-purified from insect cells, none added; site mutant, gel filtration profile comparable to wild type. It counts as binding.

In assay [2] the target is T2, human INTS4-INTS9-INTS11 complex (human ICM) (Homo sapiens, UniProt Q5TA45+Q96HW7+Q9NV88).
T2 construct: three-subunit complex purified from insect cell expression
Kind of assay: LC-MS/MS of co-purified ligand; IP6 also fitted into published human ICM map (EMDB […]). The settings on record: ligand co-purified from insect cells, none added. The class given is binding.

The target of assay [3] is T3, Drosophila IntS4-IntS9-IntS11 complex (Drosophila ICM, Integrator cleavage module) (Drosophila melanogaster, UniProt Q95TS5+Q9VAH9+Q9W3E1, Q9VAH9:K462E).
T3 construct: IntS4 (N-terminal 6xHis), IntS9 and IntS11 co-expressed in Tni insect cells; IP6 co-purified from the host; free IntS9 N-terminus contacts IP6
As to the kind of experiment: LC-MS/MS of co-purified ligand. It counts as binding. The settings on record: ligand co-purified from insect cells, none added; site mutant, gel filtration profile comparable to wild type.

For assay [4], the target named is T4, Drosophila IntS4-IntS9-IntS11 complex (Drosophila ICM, Integrator cleavage module) (Drosophila melanogaster, UniProt Q95TS5+Q9VAH9+Q9W3E1).
T4 construct: IntS4 (N-terminal 6xHis), IntS9 and IntS11 co-expressed in Tni insect cells; IP6 co-purified from the host; free IntS9 N-terminus contacts IP6
Kind of assay: cryo-EM structure ([…] Å); LC-MS/MS of co-purified ligand. It counts as binding. The conditions noted are these: ligand co-purified from insect cells, none added; site at interface of IntS4, IntS9 and IntS11, 55 Å from the IntS11 active site.

The target in assay [5] is T5, human INTS4-INTS9-INTS11 complex (human ICM) (Homo sapiens, UniProt Q5TA45+Q96HW7+Q9NV88, Q5TA45:K462E).
T5 construct: three-subunit complex purified from insect cell expression
Kind of assay: LC-MS/MS of co-purified ligand. It counts as binding. The settings on record: ligand co-purified from insect cells, none added; site mutant, gel filtration profile comparable to wild type.

The target in assay [6] is T6, Drosophila IntS9, subunit of the Integrator cleavage module (Drosophila (D. melanogaster), UniProt Q95TS5 1-654).
T6 construct: Integrator complex subunit 9 (IntS9), Drosophila; Cloned into the pFL acceptor vector together with IntS11; no tag is stated; also called Integrator subunit 9
T6 sequence: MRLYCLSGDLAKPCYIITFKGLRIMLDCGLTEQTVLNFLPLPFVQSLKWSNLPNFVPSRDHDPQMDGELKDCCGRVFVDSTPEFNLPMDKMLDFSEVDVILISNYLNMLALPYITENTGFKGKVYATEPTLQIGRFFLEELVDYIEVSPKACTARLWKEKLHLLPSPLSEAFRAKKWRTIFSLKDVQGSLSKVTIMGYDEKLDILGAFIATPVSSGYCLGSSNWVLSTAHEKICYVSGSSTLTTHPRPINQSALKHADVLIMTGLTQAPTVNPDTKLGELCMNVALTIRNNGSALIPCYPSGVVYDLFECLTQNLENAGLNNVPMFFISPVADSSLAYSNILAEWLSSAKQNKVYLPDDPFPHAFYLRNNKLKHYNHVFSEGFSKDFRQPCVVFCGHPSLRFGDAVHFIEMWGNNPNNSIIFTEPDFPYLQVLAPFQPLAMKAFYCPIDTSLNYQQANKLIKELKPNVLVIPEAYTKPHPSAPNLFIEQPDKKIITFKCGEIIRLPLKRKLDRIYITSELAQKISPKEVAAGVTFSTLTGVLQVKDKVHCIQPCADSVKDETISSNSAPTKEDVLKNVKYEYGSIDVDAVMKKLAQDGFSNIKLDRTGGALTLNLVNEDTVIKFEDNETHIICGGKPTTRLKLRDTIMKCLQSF
As to the kind of experiment: SEC; gel filtration (Hiload 16/60 Superdex 200) of wild-type and K462E mutant Drosophila ICM co-expressed in insect cells, after nickel affinity; SDS gel of the complex. The settings on record: both partners purified.

Assay [7] concerns the target T7, Drosophila IntS4 (N-terminal 6xHis-tagged), subunit of the Integrator cleavage module (Drosophila (D. melanogaster), UniProt Q9W3E1 1-1022).
T7 construct: Integrator complex subunit 4 (IntS4), Drosophila; Residues beyond 570 (CTD) were not modelled in the structure; also called Integrator subunit 4
T7 sequence: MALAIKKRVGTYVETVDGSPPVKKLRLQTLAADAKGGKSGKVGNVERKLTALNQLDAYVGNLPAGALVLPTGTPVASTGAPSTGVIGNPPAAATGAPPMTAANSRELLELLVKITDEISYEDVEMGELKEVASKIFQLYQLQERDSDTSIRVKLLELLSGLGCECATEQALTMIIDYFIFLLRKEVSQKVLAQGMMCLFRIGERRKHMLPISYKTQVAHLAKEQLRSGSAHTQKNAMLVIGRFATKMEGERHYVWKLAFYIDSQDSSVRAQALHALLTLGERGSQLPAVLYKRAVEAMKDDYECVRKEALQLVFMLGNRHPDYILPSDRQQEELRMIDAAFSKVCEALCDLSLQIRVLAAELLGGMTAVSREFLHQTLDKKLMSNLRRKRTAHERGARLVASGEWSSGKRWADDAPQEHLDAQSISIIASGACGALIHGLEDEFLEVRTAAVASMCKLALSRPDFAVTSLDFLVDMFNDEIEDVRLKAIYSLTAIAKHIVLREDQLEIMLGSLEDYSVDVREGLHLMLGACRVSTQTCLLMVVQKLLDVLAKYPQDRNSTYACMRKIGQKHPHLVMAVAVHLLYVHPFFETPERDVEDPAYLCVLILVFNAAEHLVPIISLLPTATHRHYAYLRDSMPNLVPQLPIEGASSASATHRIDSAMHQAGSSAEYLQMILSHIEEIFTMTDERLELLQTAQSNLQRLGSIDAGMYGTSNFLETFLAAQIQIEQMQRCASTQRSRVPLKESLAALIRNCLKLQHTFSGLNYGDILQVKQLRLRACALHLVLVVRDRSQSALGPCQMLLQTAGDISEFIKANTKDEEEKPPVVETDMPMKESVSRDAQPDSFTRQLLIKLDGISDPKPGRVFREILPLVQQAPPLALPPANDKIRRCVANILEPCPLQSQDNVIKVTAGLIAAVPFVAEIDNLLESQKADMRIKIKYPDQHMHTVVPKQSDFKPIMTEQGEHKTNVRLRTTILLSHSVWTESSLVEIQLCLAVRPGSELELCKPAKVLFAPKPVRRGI
The assay is described as above. The conditions noted are these: both partners purified.

T2 sequence (Q96HW7 whole entry): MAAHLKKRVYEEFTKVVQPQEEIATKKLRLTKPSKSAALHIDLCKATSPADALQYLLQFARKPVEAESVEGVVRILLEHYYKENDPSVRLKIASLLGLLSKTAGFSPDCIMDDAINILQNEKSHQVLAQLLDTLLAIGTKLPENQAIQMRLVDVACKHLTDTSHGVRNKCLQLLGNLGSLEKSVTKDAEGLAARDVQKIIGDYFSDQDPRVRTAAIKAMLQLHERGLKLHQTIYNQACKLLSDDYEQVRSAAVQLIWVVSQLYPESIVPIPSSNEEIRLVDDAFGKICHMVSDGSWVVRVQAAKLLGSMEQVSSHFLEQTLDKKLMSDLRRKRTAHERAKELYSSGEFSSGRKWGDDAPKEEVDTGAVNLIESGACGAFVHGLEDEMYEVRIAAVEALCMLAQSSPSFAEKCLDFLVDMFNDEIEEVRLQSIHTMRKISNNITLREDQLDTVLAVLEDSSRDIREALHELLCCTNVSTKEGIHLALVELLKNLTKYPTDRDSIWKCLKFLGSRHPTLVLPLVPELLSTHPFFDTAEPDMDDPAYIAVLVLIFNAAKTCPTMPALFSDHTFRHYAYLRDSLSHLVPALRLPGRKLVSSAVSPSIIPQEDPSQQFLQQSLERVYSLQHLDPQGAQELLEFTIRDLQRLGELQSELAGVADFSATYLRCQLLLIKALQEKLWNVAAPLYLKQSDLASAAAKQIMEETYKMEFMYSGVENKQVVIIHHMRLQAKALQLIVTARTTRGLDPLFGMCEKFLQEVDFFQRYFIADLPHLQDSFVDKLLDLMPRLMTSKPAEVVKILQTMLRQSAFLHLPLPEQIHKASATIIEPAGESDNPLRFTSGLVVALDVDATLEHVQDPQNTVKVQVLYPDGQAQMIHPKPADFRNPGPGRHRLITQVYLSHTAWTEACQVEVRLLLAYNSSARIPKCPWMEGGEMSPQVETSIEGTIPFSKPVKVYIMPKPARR
T2 sequence (Q9NV88 whole entry): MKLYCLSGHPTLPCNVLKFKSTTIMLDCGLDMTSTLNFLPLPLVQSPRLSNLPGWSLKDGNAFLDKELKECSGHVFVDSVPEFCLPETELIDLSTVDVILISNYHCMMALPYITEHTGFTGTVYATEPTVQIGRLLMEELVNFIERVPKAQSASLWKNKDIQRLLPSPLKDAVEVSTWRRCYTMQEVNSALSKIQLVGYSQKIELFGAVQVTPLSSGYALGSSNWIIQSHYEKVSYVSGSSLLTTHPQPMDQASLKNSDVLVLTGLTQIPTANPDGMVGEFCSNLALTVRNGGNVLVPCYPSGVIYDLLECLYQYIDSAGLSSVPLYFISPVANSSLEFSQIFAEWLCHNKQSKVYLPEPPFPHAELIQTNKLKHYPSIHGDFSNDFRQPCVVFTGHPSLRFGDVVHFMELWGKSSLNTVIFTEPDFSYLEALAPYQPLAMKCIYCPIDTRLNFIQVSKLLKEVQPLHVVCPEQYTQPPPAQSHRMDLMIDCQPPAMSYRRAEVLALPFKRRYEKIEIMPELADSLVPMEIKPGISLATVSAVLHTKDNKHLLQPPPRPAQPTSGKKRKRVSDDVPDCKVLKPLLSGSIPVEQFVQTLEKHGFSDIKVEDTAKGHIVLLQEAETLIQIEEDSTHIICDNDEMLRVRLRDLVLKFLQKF
T2 sequence (Q5TA45 whole entry): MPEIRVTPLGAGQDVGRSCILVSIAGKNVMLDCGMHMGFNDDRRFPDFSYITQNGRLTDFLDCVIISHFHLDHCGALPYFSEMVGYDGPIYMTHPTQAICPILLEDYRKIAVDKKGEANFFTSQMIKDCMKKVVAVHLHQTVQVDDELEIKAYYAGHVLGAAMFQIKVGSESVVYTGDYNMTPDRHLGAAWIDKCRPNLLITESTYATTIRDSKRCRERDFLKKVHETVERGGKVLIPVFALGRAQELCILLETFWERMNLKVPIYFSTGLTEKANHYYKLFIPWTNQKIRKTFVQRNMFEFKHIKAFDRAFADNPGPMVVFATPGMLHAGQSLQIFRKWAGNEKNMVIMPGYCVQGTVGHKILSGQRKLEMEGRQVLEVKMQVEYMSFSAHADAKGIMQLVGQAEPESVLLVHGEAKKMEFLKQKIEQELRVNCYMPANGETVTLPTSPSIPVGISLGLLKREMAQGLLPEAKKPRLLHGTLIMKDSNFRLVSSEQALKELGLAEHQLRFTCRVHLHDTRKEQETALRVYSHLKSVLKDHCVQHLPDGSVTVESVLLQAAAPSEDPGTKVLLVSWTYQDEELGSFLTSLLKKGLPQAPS
T1 sequence (Q96HW7 whole entry): as the sequence (Q96HW7 whole entry) above
T1 sequence (Q9NV88 whole entry K510E/R511E): as the sequence (Q9NV88 whole entry) above, with K510E, R511E counted along it
T1 sequence (Q5TA45 whole entry): as the sequence (Q5TA45 whole entry) above
T5 sequence (Q96HW7 whole entry): as the sequence (Q96HW7 whole entry) above
T5 sequence (Q9NV88 whole entry): as the sequence (Q9NV88 whole entry) above
T5 sequence (Q5TA45 whole entry K462E): as the sequence (Q5TA45 whole entry) above, with K462E counted along it
T4 sequence (Q9VAH9 whole entry, one chain of several): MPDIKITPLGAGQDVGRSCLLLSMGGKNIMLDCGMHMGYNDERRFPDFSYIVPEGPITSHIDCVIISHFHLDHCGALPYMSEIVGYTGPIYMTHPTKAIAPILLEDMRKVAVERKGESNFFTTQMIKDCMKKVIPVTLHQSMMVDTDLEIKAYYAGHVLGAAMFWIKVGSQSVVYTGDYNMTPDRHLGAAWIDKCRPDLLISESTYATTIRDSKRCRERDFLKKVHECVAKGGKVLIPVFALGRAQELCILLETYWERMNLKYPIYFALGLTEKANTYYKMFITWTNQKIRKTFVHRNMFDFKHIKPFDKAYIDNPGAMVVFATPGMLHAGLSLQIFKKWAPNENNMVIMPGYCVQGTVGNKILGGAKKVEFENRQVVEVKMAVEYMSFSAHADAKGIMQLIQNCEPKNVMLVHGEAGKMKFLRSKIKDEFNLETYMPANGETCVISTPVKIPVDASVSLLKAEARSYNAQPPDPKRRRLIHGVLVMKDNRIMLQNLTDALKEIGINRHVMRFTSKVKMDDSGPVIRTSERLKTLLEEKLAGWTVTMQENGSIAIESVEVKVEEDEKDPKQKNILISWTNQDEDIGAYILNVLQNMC

As to `O=P(O)(O)O[C@H]1[C@H](OP(=O)(O)O)[C@@H](OP(=O)(O)O)[C@H](OP(=O)(O)O)[C@@H](OP(=O)(O)O)[C@H]1OP(=O)(O)O` [inositol hexakisphosphate], the IP6 detection entry in assay [1] is “human ICM sample containing the K510E/R511E double mutation in IntS9”; in assay [3] it was “we failed to detect IP6 in our mass spectrometry experiments on them”; in assay [5], “we failed to detect IP6 in our mass spectrometry experiments on them”. Besides, the “LC-MS/MS of co-purified ligand; IP6 also fitted into published human ICM map (EM)” value in assay [2] is “confirm by mass spectrometry the binding of IP6 to wild-type human or Drosophila ICM samples”. In addition, the “cryo-EM structure (2.74 Å); LC-MS/MS of co-purified ligand” value in assay [4] is reported as “The structure of Drosophila ICM unexpectedly revealed the presence of an inositol hexakisphosphate (IP6) molecule”.

B1: Drosophila IntS11 K462E (in the K462E mutant Drosophila ICM) (enzyme, Drosophila (D. melanogaster))
chain: MPDIKITPLGAGQDVGRSCLLLSMGGKNIMLDCGMHMGYNDERRFPDFSYIVPEGPITSHIDCVIISHFHLDHCGALPYMSEIVGYTGPIYMTHPTKAIAPILLEDMRKVAVERKGESNFFTTQMIKDCMKKVIPVTLHQSMMVDTDLEIKAYYAGHVLGAAMFWIKVGSQSVVYTGDYNMTPDRHLGAAWIDKCRPDLLISESTYATTIRDSKRCRERDFLKKVHECVAKGGKVLIPVFALGRAQELCILLETYWERMNLKYPIYFALGLTEKANTYYKMFITWTNQKIRKTFVHRNMFDFKHIKPFDKAYIDNPGAMVVFATPGMLHAGLSLQIFKKWAPNENNMVIMPGYCVQGTVGNKILGGAKKVEFENRQVVEVKMAVEYMSFSAHADAKGIMQLIQNCEPKNVMLVHGEAGKMKFLRSKIKDEFNLETYMPANGETCVISTPVKIPVDASVSLLEAEARSYNAQPPDPKRRRLIHGVLVMKDNRIMLQNLTDALKEIGINRHVMRFTSKVKMDDSGPVIRTSERLKTLLEEKLAGWTVTMQENGSIAIESVEVKVEEDEKDPKQKNILISWTNQDEDIGAYILNVLQNMC
notes: Integrator complex subunit 11 (IntS11), Drosophila, with K462E; also called K462E mutant of Drosophila ICM; source: insect cells, purified as ICM sample
For B1, the binding result in assay [6] and in assay [7] was “binds” throughout.

The record behind these values is publication PMC9525679, “Inositol hexakisphosphate is required for Integrator function” (Nature Communications, 2022).
